Laboratory results reported in US20240165196A1, “Beta-Lactamase Inhibitors” (VIB VZW, priority 2021, published 2024).

System: E. coli strains carrying NDMs
Test: checkerboard assay (FICI), TEM3.2 and penicillin
Assay type: cell-based
Conditions: strains containing NDMs; significant spread
From the text: FIGS. 4A-4K. […] IV—Intravenous, IP—Intraperitoneal, SC—Subcutaneously. The data shown is from a single experiment with 4 animals per group. […] (ns—non significant, #—P>0.05, *—P≤0.05, ***—P≤0.01, ****—P≤0.001). (FIG. 4G) FICI plot as in FIG. 2, for the E. coli strains indicated and the combination of penicillin and the TEM3.2 peptide. […] (FIG. 4J) Same as FIG. 4H for peptide BGAL. (FIG. 4K) Same as FIG. 4H for peptide P33.
As we wondered about the generality of our peptide design approach, we set out to design a peptide to inactivate a structurally unrelated beta-lactamase. […] This enzyme was first isolated from a patient in 200850, by 2010 could be detected in clinical isolates throughout the UK and India^51 and by 2015 was detected in over 70 countries worldwide^52.
For the analysis of the synergy between the peptides with other antibiotics, a checkerboard assay was performed. […] FICI is calculated as the sum of the individual fractional inhibitory concentrations (FICs) for each drug (where MIC A and MIC B denote the MIC of each drug alone, and MIC AA+B and MIC BA+B denote the concentrations of A and B in the drug combination). […]

## Ac-RLTAFLHNRRPRLTAFLRQRR-NH2 [TEM3.2]
  synergy with penicillin (FICI): little or no synergy
